How the values were obtained:
[1] = biological target: T1, A1AR (A1 adenosine receptor) (Homo sapiens, UniProt P30542); test: competition with fluorescent ligand CA200623 on transfected CHO-K1 cells; confirmed by confocal microscopy; format: cell-based
T1 construct: gene ADORA1
T1 sequence (P30542 1-326): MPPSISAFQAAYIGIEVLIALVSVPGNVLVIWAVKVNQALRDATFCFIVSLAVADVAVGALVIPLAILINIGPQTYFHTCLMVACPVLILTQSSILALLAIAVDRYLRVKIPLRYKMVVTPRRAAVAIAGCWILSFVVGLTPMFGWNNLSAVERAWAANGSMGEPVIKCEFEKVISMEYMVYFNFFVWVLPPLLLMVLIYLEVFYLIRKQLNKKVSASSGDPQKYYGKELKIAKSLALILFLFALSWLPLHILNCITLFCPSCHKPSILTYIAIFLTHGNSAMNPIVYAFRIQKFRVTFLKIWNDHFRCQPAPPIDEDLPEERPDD

[2] = biological target: T2, A3AR (A3 adenosine receptor) (Homo sapiens, UniProt P0DMS8); test: as above; format: cell-based
T2 construct: gene ADORA3
T2 sequence (P0DMS8 1-318): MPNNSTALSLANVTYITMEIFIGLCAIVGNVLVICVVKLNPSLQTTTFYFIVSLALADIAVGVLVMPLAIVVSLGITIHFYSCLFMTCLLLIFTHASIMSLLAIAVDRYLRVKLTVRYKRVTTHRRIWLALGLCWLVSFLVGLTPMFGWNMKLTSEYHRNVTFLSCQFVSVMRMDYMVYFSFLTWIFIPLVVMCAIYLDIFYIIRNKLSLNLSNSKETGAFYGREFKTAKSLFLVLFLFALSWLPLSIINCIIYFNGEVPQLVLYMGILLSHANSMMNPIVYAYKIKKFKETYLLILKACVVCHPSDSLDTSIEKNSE

For `COc1cc(/C=C\C(=O)CC(=O)/C=C/c2ccc(O)c(OC)c2)ccc1O` [CTCUR, cis-trans curcumin], the Ki [1] was 306 nM and the Ki [2] was 400 nM.
